Laboratory results taken from patent publication US5391555A, “Methods for treating inflammatory bowel disease with leukotriene synthesis inhibitors” (Miles Inc., priority 1993, dated 1995).

How the values were obtained:
human bronchial muscle = human bronchial muscle contraction stimulated by anti-human IgE; type: cell-based; conditions: for IC50: contraction stimulated by anti-human IgE (1/1000), read-out: ED50 human bronchial muscle
Procedure: For the measurement of human bronchial muscle contraction, bronchial rings were obtained from patients undergoing surgical resection of the lungs typical for lung cancer. The muscle rings were set up in organ baths under an initial load of 3 g and contracted with 100 μM acetylcholine in Tyrode's solution to provide a standardized contraction. The organs were then washed until they returned to the baseline tension in Tyrode's solution containing atropine 1 μM, indomethacin 3 μM and polaramine 1 μM at 37° C.
Contraction was stimulated by the treatment of the muscle strips with anti-human IgE (1/1000) with or without LSI. The intensity of the contractions were expressed as the percentage of the acetylcholine-inducedcontraction. The percentage of inhibition by the LSI was calculated from the ratio of the relative contractions. The activity of several of the well known LSIs of other structural classes (Zileuton & MK886) are compared below with the quinolines of the present invention.

edema of the mouse ear = assay: Mouse Ear Inflammation Test (arachidonic acid-induced edema); type: in vivo; conditions: oral, 60 minutes before arachidonic acid, swelling at 30 minutes, averaged over several experiments, read-out: Edema formation - ED50
Procedure: Because it is known that leukotrienes are the major mediators of the edema which follows the application of arachidonic acid on the skin of the mouse ear and because the human clinical trials have implicated leukotrienes in the pathology of Inflammatory Bowel Disease (IBD), the mouse ear inflammation test can be used as a model to predict efficacy in IBD.
In this test edema is induced by the topical application of 10 μl of a 20% arachidonic acid solution on the mouse ear. 60 minutes before arachidonic acid application the animals were treated orally with compound or vehicle. 30 minutes after the induction of inflammation the swelling of the ear was measured. The results averaged over several experiments are shown below.

[1] = system: LTB4 / human blood polymorphonuclear leukocytes (PMN); assay: response of human blood polymorphonuclear leukocytes (PMN): A23187-stimulated LTB4 in human whole blood; type: cell-based; conditions: Leukocyte, 0.5 h, LTB4, 30 μM ionophore A23187, 30 min, 37° C., read-out: ED50 human whole blood
Procedure: For evaluation of the response of human blood polymorphonuclear leukocytes (PMN), 0.5 ml aliquots of human blood with heparin as the anticoagulant are preincubated for 10 minutes with 2 μl dimethylsulfoxide (DMSO) alone or with DMSO containing the compound to be tested (shaken in water bath at 37° C.).
The PMN are then stimulated with a final concentration 30 μM of the ionophore A23187 for 30 minutes at 37° C. The reaction is terminated with 1 ml methanol. The incubate is cooled 20 minutes in an ice bath, vortexed, then centrifuged at 13,000 g.
The amount of LTB4 present in the removed supernatant is analysed by HPLC and/or radioimmune assays.

[2] = system: TNBS-induced colitis in rats; assay: TNBS-induced colitis in rats: colonic damage; type: in vivo, Male Wistar rats; conditions: 30 and 100 mg/kg orally bid, 7 days; 14 days following induction; vs placebo
Procedure: (§1) A colitis resembling human ulcerative colitis can be induced in rats by the intracolonic infusion of trinitrobenzene sulfonic acid (Wallace et al., 1990, Am J Physiol. 258:G527-34).
(§2) Male Wistar rats were lightly anesthetized with ether, and a 2.3 mm rubber cannula inserted into the lumen of the colon via the anus. The cannula was advanced so that the tip was approximately 8 cm proximal to the anus. Colitis is induced by the administration of 0.25 ml of 50% ethanol (vol/vol) containing 30 mg of 2,4,6-trinitrobenzene sulfonic acid (TNB) through the cannula. After instilling the TNB-ethanol solution, the cannula was left in place for a few seconds then gently removed.
(§3) Animals were sacrificed at various time intervals after the administration of TNB-ethanol for examination of the level of LTB4 in the tissue and for histological examination.
R-(-)-2-cyclopentyl-2-[4-(2-quinolinyl-methoxy)-phenyl]-acetic acid, at doses of 30 and 100 mg/kg or placebo is administered orally to these animals bid beginning 2 hours before induction of colitis and continuing for the next 7 days. Two hours after the administration of the test compound, animals are sacrificed and samples of the grossly inflammed colonic tissue are excised and incubated in vitro for 20 minutes. […]

TxB2 = assay: TNBS-induced colitis in rats: TxB2 synthesis by excised colonic tissue; type: in vivo, Male Wistar rats; conditions: 30 and 100 mg/kg orally bid, 7 days; tissue incubated in vitro 20 minutes
Procedure: as §1, §2, §3
(§4) R-(-)-2-cyclopentyl-2-[4-(2-quinolinyl-methoxy)-phenyl]-acetic acid, at doses of 30 and 100 mg/kg or placebo is administered orally to these animals bid beginning 2 hours before induction of colitis and continuing for the next 7 days. Two hours after the administration of the test compound, animals are sacrificed and samples of the grossly inflammed colonic tissue are excised and incubated in vitro for 20 minutes.

LTB4 = assay: TNBS-induced colitis in rats: LTB4 synthesis by excised colonic tissue; type: in vivo, Male Wistar rats; conditions: 30 and 100 mg/kg orally bid, 7 days; tissue incubated in vitro 20 minutes
Procedure: as §1, §2, §3, §4

bronchodilator in man = conditions: compared with prediction from inhibition of neutrophil-dependent LTB4 synthesis at blood concentration; cited from earlier work
[3] = system: Dextran Sulfate-induced colitis in mice; assay: Dextran Sulfate-induced colitis in mice; type: in vivo; conditions: 10 mg/kg or 30 mg/kg orally bid; 5% dextran sulfate in drinking water
Excerpt: Mice, when provided 5% high molecular weight dextran sulfate in their drinking water for 5-7 days, develop an acute colitis with diarrhea, gross rectal bleeding, and weight loss (Okayasu et al., 1990, Gastroenterol, 98:694-702).

Compound | IC50 [1] | IC50 (human bronchial muscle) | ED50 (edema of the mouse ear) | further results
O=C(O)C(O)(c1ccc(OCc2ccc3ccccc3n2)cc1)C1Cc2ccccc2C1 (single isomer, unassigned; (-)) [Formula IV, (-)-2-hydroxy-2-(2-indanyl)-2-[4-(2-quinolinyl-methoxy)-phenyl]-acetic acid] | 4500 nM | 100 nM | 15 mg/kg | 
CS(=O)(=O)NC(=O)[C@@H](c1ccc(OCc2ccc3ccccc3n2)cc1)C1CCCCCC1 [Formula II, R-(-)-2-cycloheptyl-N-methylsulfonyl-2-[4-(2-quinolinyl-methoxy)-phenyl]-acetamide] | 1100 nM | 800 nM | 5.2 mg/kg | occult blood in the stool [3]: reduction in occult blood in the stool; stool consistency [3]: improvement in stool consistency; symptoms of colitis [3]: decrease in the symptoms of colitis; weight loss [3]: reduction in weight loss
CC(C)c1ccc2c(c1)c(SC(C)(C)C)c(CC(C)(C)C(=O)O)n2Cc1ccc(Cl)cc1 [MK886, reference compound] | 430 nM |  | ~100 mg/kg | percentage of inhibition, human bronchial muscle (human bronchial muscle; @ μM (concentration not given), anti-human IgE (1/1000)): 0-39%

Further lines, with some results ahead:

IC50 [1] | IC50 (human bronchial muscle) | Compound | ED50 (edema of the mouse ear) | further results
690 nM |  | CC(c1cc2ccccc2s1)N(O)C(N)=O (stereo not drawn) [Zileuton, reference compound] | 47.4 mg/kg | inhibition at 1 µM (human bronchial muscle; @ 1 μM, anti-human IgE (1/1000), read-out: percentage of inhibition, human bronchial muscle): 4%
17000 nM | 800 nM | O=C(O)[C@@H](c1ccc(OCc2ccc3ccccc3n2)cc1)C1CCCC1 [Formula I, R-(-)-2-cyclopentyl-2-[4-(2-quinolinyl-methoxy)-phenyl]-acetic acid] | 48.7 mg/kg | frequency and extent of the ulcerations [2]: reduces both the frequency of adhesions and the frequency and extend of the ulcerations; frequency of adhesions [2]: reduces both the frequency of adhesions; synthesis of TxB2 in culture supernatants of inflamed colonic tissue (TxB2): not of TxB2; synthesis of LTB4 in culture supernatants of inflamed colonic tissue (LTB4): markedly inhibited; activity as a bronchodilator in man (bronchodilator in man): considerably greater than would have been predicted
3000 nM | 1000 nM | CC(C)Cc1cc(C(C(=O)O)C2CCCCCC2)ccc1OCc1ccc2ccccc2n1 (single isomer, unassigned; (-)) [Formula III, (-)-2-cycloheptyl-2-[3-isobutyl-4-(2-quinolinyl-methoxy)-phenyl]-acetic acid] | 12.5 mg/kg | 
